# Source: article PMC6214120 (International Journal of Molecular Sciences, 2018)
# Where two headings read alike, the source gives them in different places.
# Tests used:
# chicken = assay: In vivo experiments with BCRP inhibitor Ko143 in chicken; conditions: in vivo experiments with Ko143 as additional BCRP inhibitor were unsuccessful
# [1] = Bidirectional transport assay in wild-type MDCK cells; type: in vitro ADME, canine; conditions: dog, FFC 50 μM
# Experimental: (§1) Wild-type MDCK cells and MDCK-chAbcg2 cells were seeded into Transwell® inserts (Catalogue number 3460, Corning Coster Corp. Acton, MA, USA) in 12-well plates at a density of 1 × 10^5 cells/insert and cultured for 5 days. The cell layer integrity was tested before transport by measuring transepithelial electrical resistance (TEER) across the apical (AP) and the basolateral (BL) sides of the cell line using a Millicell-ERS epithelial voltometer (Millipore, Burlington, MA, USA). The bidirectional transport experiments were conducted with the transport buffers containing either FFC (50 μM) or the mixture of FFC and gefitinib instead of the blank medium or the medium contain gefitinib (100 μM). After the cells were incubated with transport buffers for 4 h, the samples collected from the receiving sides were submitted for HPLC analysis. The TEER values of each monolayer were checked again at the end of the transport studies to ensure the integrities of cell monolayers during the whole transport analysis. According to FDA guidance a drug with a net efflux ratio that is over 2.0 will be considered as a potential substrate of an efflux pump. The apparent permeability coefficients (Papp) across cell monolayer were calculated as follows: Papp = (dQ/dt)/(A × C0), where A is the area of filter membrane, C0 is the initial concentration of the tested drug, dQ is the amount of transported drug, and dt is time elapsed. The efflux ratio (ER) was calculated from (Papp B→A)/(Papp A→B) and the net efflux ratio (NER) was calculated from […]. Each group has 5 cell monolayers, and the experiment was repeated three times.
# chicken BCRP = assay: Bidirectional transport assay in MDCK-chAbcg2 cells; type: in vitro ADME; conditions: MDCK-chAbcg2 vs MDCK, gefitinib as inhibitor
# Experimental: as §1
# chicken BCRP (Abcg2) = assay: as above; type: in vitro ADME; conditions: chicken, FFC 50 μM, 4 h
# Experimental: as §1
# [2] = Pharmacokinetic studies of FFC in broilers; type: in vivo, Arbor Acres (AA) broilers; conditions: for bioavailability: read-out: F (absolute bioavailability); for AUC(0-t): read-out: AUC0~12h; for half-life: read-out: T1/2β (converted)
# Experimental: Ten 4-week and fifteen 8-week old AA broilers were used in this study and divided into five groups (5 birds in each group) as follows: Group I, 4-week old birds given FFC orally with a single dose of 20 mg/kg through crop tube gavage; group II, 8-week old birds given FFC orally with a single dose of 20 mg/kg through crop tube gavage; group III, 4-week old birds given FFC intravenously with a single dose of 10 mg/kg through the left brachialis vein; group IV, 8-week old birds given FFC intravenously with a single dose of 10 mg/kg through the left brachialis vein; group V, 8-week old birds orally given FFC (20 mg/kg) plus gefitinib (100 mg/kg, an inhibitor of BCRP) through crop tube gavage. Groups I, II, III, and IV were used to study the influence of age-dependent BCRP expression on FFC pharmacokinetics. The data from group II and group V were used to further analyze the effects of BCRP on FFC pharmacokinetics. […] Plasma was rapidly harvested by centrifugation at 5000 g for 5 min and stored at −80 °C until assayed. The extraction procedures and HPLC method were modified from the previous method. All plasma samples were analyzed on Thermo fisher U3000 high-performance liquid chromatography (HPLC) system. […] The acetonitrile supernatants were combined, evaporated under nitrogen at 40 °C, and dissolved in 0.2 mL of mobile phase, from which 20 μL was injected into HPLC system. The mobile phase consisted of a mixture of acetonitrile-water at a ratio of 20:80 (v/v). The detection conditions as the follows: wavelength at 224 nm, the column temperature at 35 °C and the flow rate at 1 mL/min. The calibration samples were prepared with eight different FFC concentrations using blank plasma. […] The average of inter- and intra-day precision (RSD) was <11%. […] Pharmacokinetic calculations were performed on each individual set of data using 3p97 practical pharmacokinetic software (Version 97, Chinese Pharmacologic Association, Beijing, China). Least-squares fits were determined for both biexponential (two-compartment model) and single exponential (one-compartment model) equations. The number of exponential terms required to describe the plasma concentration-time data for each boiler chickens was determined by application of Akaike’s Information Criterion (AIC Method). The area under the concentration-time curve (AUC) was calculated according to the linear trapezoidal method.
# [3] = MDCK-chAbcg2, with gefitinib (100 μM)
# [4] = MDCK-chAbcg2, without gefitinib
# [5] = Arbor Acres (AA) broiler, plasma, iv, 10 mg/kg, intravenous 10 mg/kg, 4-week old broilers
# [6] = Arbor Acres (AA) broiler, plasma, iv, 10 mg/kg, intravenous 10 mg/kg, 8-week old broilers
# [7] = Arbor Acres (AA) broiler, plasma, po, 20 mg/kg, oral 20 mg/kg, 4-week old broilers
# [8] = Arbor Acres (AA) broiler, plasma, po, 20 mg/kg, oral 20 mg/kg, 8-week old broilers
# [9] = Arbor Acres (AA) broiler, plasma, po, 20 mg/kg, with gefitinib 100 mg/kg (BCRP inhibitor, co-dosed orally), oral 20 mg/kg, 8-week old broilers administered gefitinib (100 mg/kg)
# [10] = oral 20 mg/kg, 4-week old broilers
# [11] = oral 20 mg/kg, 4 week-old broilers
# [12] = oral 20 mg/kg, 8-week old broilers
# [13] = oral 20 mg/kg, 8-week old broilers administered gefitinib (100 mg/kg)
# [14] = oral 20 mg/kg, 8-week old broilers with oral gefitinib 100 mg/kg
# [15] = oral 20 mg/kg, 8 week old broilers
compound,measurement,setting,value
COc1ccc2c3c([nH]c2c1)[C@H](CC(C)C)N1C(=O)[C@H](CCC(=O)OC(C)(C)C)NC(=O)[C@@H]1C3 [Ko143],Toxicity in chicken,chicken,observed toxicity in chicken
"CS(=O)(=O)c1ccc([C@@H](O)[C@@H](CF)NC(=O)C(Cl)Cl)cc1 [florfenicol, Florfenicol]","Papp A→B at 4 h, 50 μM",[1]; with gefitinib (100 μM),0.37 ± 0.03 ×10⁻⁶ cm/s
same,"Papp B→A at 4 h, 50 μM",[1]; with gefitinib (100 μM),0.39 ± 0.01 ×10⁻⁶ cm/s
same,"Papp A→B at 4 h, 50 μM",[1]; without gefitinib,0.4 ± 0.04 ×10⁻⁶ cm/s
same,"Papp B→A at 4 h, 50 μM",[1]; without gefitinib,0.4 ± 0.01 ×10⁻⁶ cm/s
same,Substrate status for chicken BCRP (FDA criteria: NER over 2.0 and efflux reversed by inhibitor),chicken BCRP,substrate of chicken BCRP
same,"Papp A→B at 4 h, 50 μM",chicken BCRP (Abcg2); [3],0.37 ± 0.02 ×10⁻⁶ cm/s
same,"Papp B→A at 4 h, 50 μM",chicken BCRP (Abcg2); [3],0.43 ± 0.01 ×10⁻⁶ cm/s
same,"Papp A→B at 4 h, 50 μM",chicken BCRP (Abcg2); [4],0.28 ± 0.01 ×10⁻⁶ cm/s
same,"Papp B→A at 4 h, 50 μM",chicken BCRP (Abcg2); [4],0.68 ± 0.04 ×10⁻⁶ cm/s
same,bioavailability,"[2]; Arbor Acres (AA) broiler, chicken, plasma, po, with gefitinib 100 mg/kg (BCRP inhibitor, co-dosed orally), oral 20 mg/kg, 8-week old broilers administered gefitinib (100 mg/kg)",78.4%
same,AUC(0-t),[2]; [5],5410 ± 310 ng·h/mL
same,half-life,[2]; [5],60 ± 51 min
same,Vd,"[2]; Arbor Acres (AA) broiler, plasma, iv, 10 mg/kg, intravenous 10 mg/kg, 4-week old broilers, read-out: Vd",1.51 ± 0.62 L/kg
same,AUC(0-t),[2]; [6],5110 ± 1890 ng·h/mL
same,half-life,[2]; [6],47.4 ± 10.8 min
same,Vd,"[2]; Arbor Acres (AA) broiler, plasma, iv, 10 mg/kg, intravenous 10 mg/kg, 8-week old broilers, read-out: Vd",1.18 ± 0.29 L/kg
same,bioavailability,"[2]; Arbor Acres (AA) broiler, plasma, po, 20 mg/kg, oral 20 mg/kg vs i.v. 10 mg/kg, 4-week old broilers",79.3%
same,bioavailability,"[2]; Arbor Acres (AA) broiler, plasma, po, 20 mg/kg, oral 20 mg/kg vs i.v. 10 mg/kg, 8-week old broilers",48%
same,Cmax,[2]; [7],3870 ± 960 ng/mL
same,Tmax,[2]; [7],37.8 ± 12.6 min
same,AUC(0-t),[2]; [7],8580 ± 1880 ng·h/mL
same,half-life,[2]; [7],196 ± 72 min
same,Cmax,[2]; [8],2930 ± 1070 ng/mL
same,Tmax,[2]; [8],37.2 ± 11.4 min
same,AUC(0-t),[2]; [8],4910 ± 1560 ng·h/mL
same,half-life,[2]; [8],56.4 ± 10.2 min
same,Cmax,[2]; [9],1730 ± 480 ng/mL
same,Tmax,[2]; [9],120 ± 84.6 min
same,AUC(0-t),[2]; [9],8010 ± 1650 ng·h/mL
same,bioavailability,[2]; [9],78.4%
same,half-life,[2]; [9],210 ± 201 min
same,ClB,"[2]; intravenous 10 mg/kg, 4-week old broilers",27.5 ± 9 mL/min/kg
same,ClB,"[2]; intravenous 10 mg/kg, 8-week old broilers",35.7 ± 11.2 mL/min/kg
same,Decrease of bioavailability in 8-week old broilers compared with 4-week old birds,[2]; oral 20 mg/kg,31.3%
same,ClB,[2]; [10],40.5 ± 8.83 mL/min/kg
same,Vd,[2]; [10],3.42 ± 1.18 L/kg
same,AUC0~12h,[2]; [11],8.58 (µg/mL)·h
same,Cl,[2]; [11],2.43 mg/kg/h/(μg/mL)
same,Vd,[2]; [11],3.42 (mg/kg)/(µg/mL)
same,ClB,[2]; [12],73.8 ± 24.3 mL/min/kg
same,Vd,[2]; [12],5.64 ± 0.60 L/kg
same,ClB,[2]; [13],42.8 ± 8.67 mL/min/kg
same,Vd,[2]; [13],7.39 ± 2.98 L/kg
same,AUC0~12h,[2]; [14],8.01 (µg/mL)·h
same,Cl,[2]; [14],2.57 mg/kg/h/(μg/mL)
same,AUC0~12h,[2]; [15],4.91 (µg/mL)·h
same,Cl,[2]; [15],4.43 mg/kg/h/(μg/mL)
same,Vd,[2]; [15],5.64 (mg/kg)/(µg/mL)
